Test results reported in ChEMBL document CHEMBL1201862, “PubChem BioAssay data set” (2004).
“And” between values parts separate entries of the source, which are not always exact repeats. Identical values can stand only once.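 Each compound was tested at five concentrations against cells in 96-well plates for 48 hours. The concentration for 50% growth inhibition is given as GI50.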 The source made the active and inactive calls. No stated cut-off is given here; in the data, active = GI50 up to about 1.1 µM and inactive = higher. Where a SMILES comes first, the peptide text is derived from it.

How the values were obtained:
Assay in all cases: DTP human tumour cell line panel, 48 h
786-0 = test system: 786-0
CAKI-1 = test system: CAKI-1
HOP-62 = test system: HOP-62
Hs-578T = test system: Hs-578T
K562 = test system: K562
MOLT-4 = test system: MOLT-4
PC-3 = test system: PC-3
RXF 393 = test system: RXF 393
SF-539 = test system: SF-539
SW-620 = test system: SW-620
TK-10 = test system: TK-10
A498 = test system: A498
A549 = test system: A549
ACHN = test system: ACHN
CCRF-CEM = test system: CCRF-CEM
COLO 205 = test system: COLO 205
DU-145 = test system: DU-145
EKVX = test system: EKVX
HCC 2998 = test system: HCC 2998
HCT-116 = test system: HCT-116
HCT-15 = test system: HCT-15
HL-60 = test system: HL-60
HT-29 = test system: HT-29
IGROV-1 = test system: IGROV-1
LOX IMVI = test system: LOX IMVI
M14 = test system: M14
MCF7 = test system: MCF7
MDA-MB-231 = test system: MDA-MB-231
MDA-MB-435 = test system: MDA-MB-435
MDA-N = test system: MDA-N
Malme-3M = test system: Malme-3M
NCI-H460 = test system: NCI-H460
NCI-H522 = test system: NCI-H522
NCI/ADR-RES = test system: NCI/ADR-RES
OVCAR-3 = test system: OVCAR-3
OVCAR-4 = test system: OVCAR-4
OVCAR-5 = test system: OVCAR-5
OVCAR-8 = test system: OVCAR-8
RPMI-8226 = test system: RPMI-8226
SF-268 = test system: SF-268
SF-295 = test system: SF-295
SK-MEL-28 = test system: SK-MEL-28
SK-MEL-5 = test system: SK-MEL-5
SNB-19 = test system: SNB-19
SR = test system: SR
T47D = test system: T47D
U-251 = test system: U-251
UACC-257 = test system: UACC-257
UACC-62 = test system: UACC-62
UO-31 = test system: UO-31
HOP-92 = test system: HOP-92
SK-MEL-2 = test system: SK-MEL-2
SK-OV-3 = test system: SK-OV-3
SN12C = test system: SN12C
SNB-75 = test system: SNB-75

**Q.** CC(=O)OCC1OC(n2c(-c3ccccc3)c(/N=N/c3ccc(Cl)cc3)c(C)c(C#N)c2=S)C(OC(C)=O)C(OC(C)=O)C1OC(C)=O (stereo unspecified) was tested. Which GI50 (786-0) did it give?
**A.** 19.5 µM (inactive) and 23.9 µM (inactive)

**Q.** And the GI50 (CAKI-1)?
**A.** 24.3 µM (inactive) and 14.3 µM (inactive)

**Q.** And the GI50 (HOP-62)?
**A.** 15.6 µM (inactive) and 27.8 µM (inactive)

**Q.** What about the GI50 (Hs-578T) of the same compound?
**A.** 15.8 µM (inactive) and 15.3 µM (inactive)

**Q.** What about the GI50 (K562) of the same compound?
**A.** 6.76 µM (inactive) and 11.8 µM (inactive)

**Q.** And the GI50 (MOLT-4)?
**A.** 4.91 µM (inactive) and 3.56 µM (inactive)

**Q.** What about the GI50 (PC-3) of the same compound?
**A.** 9.4 µM (inactive) and 5.09 µM (inactive)

**Q.** What about the GI50 (RXF 393) of the same compound?
**A.** 17.4 µM (inactive) and 13.2 µM (inactive)

**Q.** And the GI50 (SF-539)?
**A.** 14 µM (inactive) and 19.6 µM (inactive)

**Q.** What about the GI50 (SW-620) of the same compound?
**A.** 7.01 µM (inactive) and 12.4 µM (inactive)

**Q.** And the GI50 (TK-10)?
**A.** 33.8 µM (inactive) and 24.6 µM (inactive)

**Q.** What does the source list for NC(=O)C1CCCN1C(=O)C(N)Cc1ccccc1 (stereo not drawn) (H-Phe-Pro-NH2; configuration not given here)?
**A.** GI50 (A498): 76.7 µM (inactive); GI50 (A549): > 100 µM (inactive); GI50 (ACHN): > 100 µM (inactive); GI50 (CAKI-1): > 100 µM (inactive); GI50 (CCRF-CEM): > 100 µM (inactive); GI50 (COLO 205): > 100 µM (inactive); GI50 (DU-145): > 100 µM (inactive); GI50 (EKVX): > 100 µM (inactive); GI50 (HCC 2998): > 100 µM (inactive); GI50 (HCT-116): > 100 µM (inactive); GI50 (HCT-15): > 100 µM; GI50 (HL-60): > 100 µM (inactive); GI50 (HOP-62): > 100 µM (inactive); GI50 (HT-29): > 100 µM (inactive); GI50 (IGROV-1): > 100 µM (inactive); GI50 (K562): > 100 µM (inactive); GI50 (LOX IMVI): > 100 µM (inactive); GI50 (M14): > 100 µM (inactive); GI50 (MCF7): > 100 µM (inactive); GI50 (MDA-MB-231): > 100 µM (inactive); GI50 (MDA-MB-435): > 100 µM (inactive); GI50 (MDA-N): > 100 µM (inactive); GI50 (MOLT-4): > 100 µM (inactive); GI50 (Malme-3M): > 100 µM (inactive); GI50 (NCI-H460): > 100 µM (inactive); GI50 (NCI-H522): > 100 µM (inactive); GI50 (NCI/ADR-RES): > 100 µM (inactive); GI50 (OVCAR-3): > 100 µM (inactive); GI50 (OVCAR-4): > 100 µM (inactive); GI50 (OVCAR-5): > 100 µM (inactive); GI50 (OVCAR-8): > 100 µM (inactive); GI50 (PC-3): > 100 µM (inactive); GI50 (RPMI-8226): > 100 µM (inactive); GI50 (SF-268): > 100 µM (inactive); GI50 (SF-295): > 100 µM (inactive); GI50 (SK-MEL-28): > 100 µM (inactive); GI50 (SK-MEL-5): > 100 µM (inactive); GI50 (SNB-19): > 100 µM (inactive); GI50 (SR): > 100 µM (inactive); GI50 (SW-620): > 100 µM (inactive); GI50 (T47D): > 100 µM (inactive); GI50 (TK-10): > 100 µM (inactive); GI50 (U-251): > 100 µM (inactive); GI50 (UACC-257): > 10 µM (inactive); GI50 (UACC-62): > 100 µM (inactive); GI50 (UO-31): > 100 µM (inactive)

**Q.** Which GI50 (A549) does the source give for c1ccc2c3nnc(c2c1)SCCSCCSc1nnc(c2ccccc12)SCCSCCS3 here?
**A.** > 100 µM (inactive)

**Q.** And the GI50 (ACHN)?
**A.** > 100 µM (inactive)

**Q.** And the GI50 (COLO 205)?
**A.** > 100 µM (inactive)

**Q.** What about the GI50 (EKVX) of the same compound?
**A.** > 100 µM (inactive)

**Q.** What about the GI50 (HCT-15) of the same compound?
**A.** > 100 µM

**Q.** And the GI50 (HOP-62)?
**A.** > 100 µM (inactive)

**Q.** What about the GI50 (HOP-92) of the same compound?
**A.** > 100 µM (inactive)

**Q.** What about the GI50 (HT-29) of the same compound?
**A.** > 100 µM (inactive)

**Q.** And the GI50 (Hs-578T)?
**A.** > 100 µM (inactive)

**Q.** What about the GI50 (IGROV-1) of the same compound?
**A.** > 100 µM (inactive)

**Q.** And the GI50 (LOX IMVI)?
**A.** > 100 µM (inactive)

**Q.** What about the GI50 (M14) of the same compound?
**A.** > 100 µM (inactive)

**Q.** And the GI50 (MDA-MB-231)?
**A.** > 100 µM (inactive)

**Q.** And the GI50 (MOLT-4)?
**A.** > 100 µM (inactive)

**Q.** And the GI50 (Malme-3M)?
**A.** > 100 µM (inactive)

**Q.** And the GI50 (NCI-H460)?
**A.** > 100 µM (inactive)

**Q.** What about the GI50 (NCI-H522) of the same compound?
**A.** > 100 µM (inactive)

**Q.** What about the GI50 (NCI/ADR-RES) of the same compound?
**A.** > 100 µM (inactive)

**Q.** And the GI50 (OVCAR-3)?
**A.** > 100 µM (inactive)

**Q.** What about the GI50 (OVCAR-4) of the same compound?
**A.** > 100 µM (inactive)

**Q.** And the GI50 (OVCAR-8)?
**A.** > 100 µM (inactive)

**Q.** And the GI50 (PC-3)?
**A.** > 100 µM (inactive)

**Q.** And the GI50 (SF-268)?
**A.** > 100 µM (inactive)

**Q.** What about the GI50 (SF-295) of the same compound?
**A.** > 100 µM (inactive)

**Q.** And the GI50 (SK-MEL-2)?
**A.** > 100 µM (inactive)

**Q.** And the GI50 (SK-MEL-5)?
**A.** > 100 µM (inactive)

**Q.** And the GI50 (SK-OV-3)?
**A.** > 100 µM (inactive)

**Q.** And the GI50 (SN12C)?
**A.** > 100 µM (inactive)

**Q.** And the GI50 (SNB-75)?
**A.** > 100 µM (inactive)

**Q.** And the GI50 (SR)?
**A.** > 100 µM (inactive)

**Q.** And the GI50 (SW-620)?
**A.** > 100 µM (inactive)

**Q.** And the GI50 (T47D)?
**A.** > 100 µM (inactive)

**Q.** What about the GI50 (UACC-257) of the same compound?
**A.** > 100 µM (inactive)

**Q.** What about the GI50 (UACC-62) of the same compound?
**A.** > 100 µM (inactive)
